Experimental data published in patent publication US10265411B2, “N-optionally substituted aryl-2-oligomer-3-alkoxypropionamides” (Nektar Therapeutics, priority 2010, dated 2019).
Read-outs that look alike come from different tables or passages of the source.

Assays:
[1] = target: T1, cloned hNav1.8 channels expressed in CHO cells (Homo sapiens, UniProt Q9Y5Y9); assay: Na+ channel blocking examination, automated whole-cell patch clamp (IonWorks Quattro); type: cell-based; conditions: for IC50: hNav1.8 in CHO cells; for block of hNav1.8 channels in the inactivated state, potency relative to control (lacosamide): in words
T1 construct: expressed in transfected cells
T1 sequence (Q9Y5Y9 whole entry): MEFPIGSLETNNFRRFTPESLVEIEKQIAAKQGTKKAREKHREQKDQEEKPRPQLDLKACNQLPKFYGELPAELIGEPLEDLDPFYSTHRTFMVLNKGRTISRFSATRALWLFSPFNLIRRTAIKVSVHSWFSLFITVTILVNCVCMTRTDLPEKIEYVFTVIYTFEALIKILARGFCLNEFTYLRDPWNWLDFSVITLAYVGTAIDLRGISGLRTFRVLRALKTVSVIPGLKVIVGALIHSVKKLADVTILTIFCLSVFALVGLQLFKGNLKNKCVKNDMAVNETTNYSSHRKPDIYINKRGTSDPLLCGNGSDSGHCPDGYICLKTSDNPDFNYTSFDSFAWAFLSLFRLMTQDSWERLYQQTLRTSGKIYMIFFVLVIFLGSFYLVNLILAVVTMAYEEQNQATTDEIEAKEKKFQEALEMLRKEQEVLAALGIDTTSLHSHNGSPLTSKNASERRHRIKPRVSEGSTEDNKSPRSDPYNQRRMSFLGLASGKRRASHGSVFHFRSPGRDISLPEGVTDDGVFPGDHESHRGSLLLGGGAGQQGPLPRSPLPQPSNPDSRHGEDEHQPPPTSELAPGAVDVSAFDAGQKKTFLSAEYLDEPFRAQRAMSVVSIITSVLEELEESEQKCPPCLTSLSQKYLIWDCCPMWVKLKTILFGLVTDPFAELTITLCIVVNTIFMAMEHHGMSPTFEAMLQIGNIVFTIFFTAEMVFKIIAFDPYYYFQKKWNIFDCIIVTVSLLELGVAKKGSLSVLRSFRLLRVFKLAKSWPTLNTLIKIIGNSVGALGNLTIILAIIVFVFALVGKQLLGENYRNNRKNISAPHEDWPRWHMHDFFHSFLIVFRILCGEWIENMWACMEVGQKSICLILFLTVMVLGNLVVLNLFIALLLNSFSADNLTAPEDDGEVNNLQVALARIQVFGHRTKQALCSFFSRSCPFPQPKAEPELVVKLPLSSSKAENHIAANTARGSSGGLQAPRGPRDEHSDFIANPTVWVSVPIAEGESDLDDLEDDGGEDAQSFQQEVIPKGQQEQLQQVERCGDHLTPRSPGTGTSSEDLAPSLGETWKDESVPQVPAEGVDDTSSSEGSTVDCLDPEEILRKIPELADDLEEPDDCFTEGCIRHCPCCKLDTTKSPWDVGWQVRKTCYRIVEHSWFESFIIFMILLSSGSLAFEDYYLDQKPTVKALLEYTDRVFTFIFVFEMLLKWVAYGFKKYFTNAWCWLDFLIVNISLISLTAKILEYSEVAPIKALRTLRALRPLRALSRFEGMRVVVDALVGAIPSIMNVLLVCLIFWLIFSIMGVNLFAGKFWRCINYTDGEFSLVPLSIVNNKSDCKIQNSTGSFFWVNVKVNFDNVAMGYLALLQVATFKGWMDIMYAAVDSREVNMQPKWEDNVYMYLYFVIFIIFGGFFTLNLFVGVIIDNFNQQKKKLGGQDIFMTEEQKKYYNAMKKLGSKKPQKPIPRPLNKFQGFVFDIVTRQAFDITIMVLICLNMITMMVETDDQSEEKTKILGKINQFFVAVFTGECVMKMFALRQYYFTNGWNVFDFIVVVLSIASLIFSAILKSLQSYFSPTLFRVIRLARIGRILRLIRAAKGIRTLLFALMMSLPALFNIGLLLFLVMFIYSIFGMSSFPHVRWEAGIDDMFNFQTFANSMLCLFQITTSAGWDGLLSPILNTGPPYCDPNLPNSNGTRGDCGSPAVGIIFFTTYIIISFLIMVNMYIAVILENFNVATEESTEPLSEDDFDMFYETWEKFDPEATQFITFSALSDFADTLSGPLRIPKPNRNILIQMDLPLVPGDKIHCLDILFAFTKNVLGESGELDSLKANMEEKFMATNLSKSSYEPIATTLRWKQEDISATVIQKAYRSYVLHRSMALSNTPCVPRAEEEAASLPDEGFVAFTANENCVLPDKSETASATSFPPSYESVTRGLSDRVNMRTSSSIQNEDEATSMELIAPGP
Description: Using an automated whole-cell patch-clamp approach, the in vitro effects of oligomer-containing compounds of the invention (synthesis described in Example 1) on cloned hNav1.8 channels expressed in CHO cells relative to control (lacosamide) were evaluated.
The procedures used in this experiment followed those set forth in Sheets et al. (2008) J Pharmacol Exp Ther 326(1):89-99. Briefly, automated patch clamp electrophysiological procedures were carried out in the IonWorks Quattro™ system (Molecular Devices Corporation, Union City Calif.). In preparation for a current recording session, intracellular solution (140 mM KCl, 5 mM MgCl2, 0.5 mM EGTA, 10 mM HEPES, 0.1 mg/mL amphotericin B) was loaded into the intracellular compartment of the Population Patch Clamp™ (PPC) planar electrode. CHO cells stably expressing the human Nav1.8 sodium channel subtype were suspended in HEPES-buffered physiological saline solution (137 mM NaCl, 4 mM KCl, 1.8 mM CaCl2, 1 mM MgCl2, 10 mM HEPES, 10 mM Glucose, pH adjusted to 7.4 with NaOH) and pipetted into the wells of the PPC planar electrode. After establishment of a whole-cell configuration (the perforated patch), membrane currents were recorded using patch clamp amplifier in the IonWorks Quattro™ system. Test article concentrations, loaded in a 384-well compound plate, were applied to naïve cells (one concentration per cell) via steel needles of a 48-channel pipettor. Each application consisted of addition of 6 μL of 2× concentrated test article solution to the total 12 μL final volume of the extracellular well of the PPC planar electrode. The PPC well contents were then mixed (three times) following addition of test article. All experiments were performed at ambient temperature.
Block of hNav1.8 sodium channel was measured using a stimulus voltage pattern shown in FIG. 1, and voltage potentials are indicated in Table 1. The pulse pattern was repeated twice (once before addition of test article and the other five minutes after test article addition). Peak current amplitudes were measured at three test pulses: TP1 (tonic block), TP11 (frequency-dependent block at 10 Hz), and TP12 (inactivated state block).
Data acquisition and analyses were performed using the IonWorks Quattro™ system operation software (version 2.0.2; Molecular Devices Corporation, Union City, Calif.). Inhibition potencies were estimated from concentration-response curves fitted using the Hill function: % Block=% VC+{(100−% VC)−(100−% VC)/[1+([Test]/IC50)^N]}, where [Test] is the concentration of test article, IC50 is the concentration of the test article producing half-maximal inhibition, N is the Hill coefficient, % VC is the percentage of the current run-down (the mean current inhibition at the vehicle control) and % Block is the percentage of ion channel current inhibited at each concentration of the test article.

[2] = Solubility of test articles in dosing vehicle 0.5% CMC; type: physicochemical; conditions: 0.5% CMC (carboxymethylcellulose)
[3] = system: formalin-induced paw licking in the mouse; assay: Pain model: formalin-induced paw licking in the mouse; type: in vivo; conditions: for formalin-induced paw licking compared to saline, Phase 2: dose 200, PO, Phase 2 (15-30 minutes); for mice sedated / mice with splayed posture: 200 mg/kg orally
Description: In the formalin-induced paw licking model, a test compound is administered via oral gavage (“PO”) followed in thirty minutes by the subcutaneous injection of formalin to a hind paw of a mouse. Subcutaneous injection of formalin first causes a pain-inducing mechanical injury (involving bradykinin and substance P) in the first five minutes (“Phase 1”) followed by a pain-inducing inflammatory response (involving bradykinin, histamine, serotonin and prostaglandins) occurring between 15-30 minutes (“Phase 2”) following the formalin injection. Both pain-inducing stimuli causes a characteristic “paw licking” response. The amount of time spent licking the formalin-injected paw is measured during Phase 1 and Phase 2. If the test article has relatively good pain reducing properties, a reduction in the time spent licking the formalin-injected paw is observed compared to the saline control group. […] By measuring a series of test articles, it is possible to understand each test article's pain reducing activity relative to each other.

[4] = test pulse TP1 (tonic block), 5 min after test article addition, read-out: IC50, type of block: Tonic
[5] = test pulse TP11 (frequency-dependent block at 10 Hz), read-out: IC50, type of block: 10 Hz
[6] = test pulse TP12 (inactivated state block), read-out: IC50, type of block: Inactivated state
[7] = 30 min before formalin, in words

Row | SMILES | IC50 [1, 4] | IC50 [1, 5] | IC50 [1, 6] | block of hNav1.8 channels in the inactivated state, potency relative to control (lacosamide) [1] | formalin-induced paw licking compared to saline, Phase 2 [3, 7] | further results
1 | COCCOC(=O)N[C@H](COC)C(=O)NCc1ccccc1 [(2R) N-benzyl-2-carboxy mPEG1 amino-3-methoxy propionamide] | > 300 µM | > 300 µM | 267 µM | potency comparable to control | – | solubility in vehicle [2]: not readily soluble
2 | COCCOCCOC(=O)N[C@H](COC)C(=O)NCc1ccccc1 [(2R) N-benzyl-2-carboxy mPEG2 amino-3-methoxy propionamide] | > 300 µM | > 300 µM | 166 µM | potency comparable to control | showed a reduction | –
3 | COCCOCCOCCOC(=O)N[C@H](COC)C(=O)NCc1ccccc1 [(2R) N-benzyl-2-carboxy mPEG3 amino-3-methoxy propionamide] | > 300 µM | > 300 µM | 239 µM | potency comparable to control | showed a reduction | –
4 | COCCOCCOCCOCCOC(=O)N[C@H](COC)C(=O)NCc1ccccc1 [(2R) N-benzyl-2-carboxy mPEG4 amino-3-methoxy propionamide] | > 300 µM | > 300 µM | > 300 µM | – | showed a reduction | –
5 | COCCOCCOCCOCCOCCOC(=O)N[C@H](COC)C(=O)NCc1ccccc1 [(2R) N-benzyl-2-carboxy mPEG5 amino-3-methoxy propionamide] | > 300 µM | > 300 µM | > 300 µM | – | showed a reduction | –
6 | COCCOCCOCCOCCOCCOCCOC(=O)N[C@H](COC)C(=O)NCc1ccccc1 [(2R) N-benzyl-2-carboxy mPEG6 amino-3-methoxy propionamide] | > 300 µM | > 300 µM | > 300 µM | – | – | –
7 | COCCOCCOCCOCCOCCOCCOCCOC(=O)N[C@H](COC)C(=O)NCc1ccccc1 [(2R) N-benzyl-2-carboxy mPEG7 amino-3-methoxy propionamide] | > 300 µM | > 300 µM | > 300 µM | – | – | –
8 | COCCOCCOCCOCCOCCOCCOCCOCCOC(=O)N[C@H](COC)C(=O)NCc1ccccc1 [(2R) N-benzyl-2-carboxy mPEG8 amino-3-methoxy propionamide] | > 300 µM | > 300 µM | > 300 µM | – | – | –
9 | COCCOCCOCCOCCOCCOCCOCCOCCOCCOC(=O)N[C@H](COC)C(=O)NCc1ccccc1 [(2R) N-benzyl-2-carboxy mPEG9 amino-3-methoxy propionamide] | > 300 µM | > 300 µM | > 300 µM | – | – | –
10 | COC[C@@H](NC(C)=O)C(=O)NCc1ccccc1 [(R)—N-benzyl-2-acetamido-3-methoxy propionamide] | – | – | – | – | greatest reduction | IC50 ([1]; IC50, type of block: 10 Hz, test pulse TP11 (frequency-dependent block at 10 Hz)): > 300 µM; IC50 ([1]; IC50, type of block: Inactivated state, test pulse TP12 (inactivated state block)): 278 µM; IC50 ([1]; IC50, type of block: Tonic, test pulse TP1 (tonic block), 5 min after test article addition): > 300 µM; solubility in vehicle [2]: not readily soluble; formalin-induced paw licking time, Phase 1 ([3]; 200 mg/kg PO, 30 min before formalin, Phase 1 (first five minutes), in words): greatest reduction; mice sedated ([3]; Phase 1): 5/7; mice with splayed posture ([3]; Phase 1): 5/7; mice sedated ([3]; Phase 2): 6/7; mice with splayed posture ([3]; Phase 2): 7/7
